Results as given in ChEMBL document CHEMBL2439974, “Design and Synthesis of 4-(4-Benzoylaminophenoxy)phenol Derivatives As Androgen Receptor Antagonists” (ACS Med Chem Lett, 2013).
The source made the active and inactive calls. The rule behind the calls is not given here.

What was measured:
[1] = test system: PC-3; experiment: Cytotoxicity against human PC3 cells assessed as growth inhibition after 3 days by WST-8 assay; assay type: functional, cell-based; settings: PC-3, 72 h
[2] = biological target: T1, Androgen receptor (Homo sapiens) (UniProt P10275); experiment: Antagonist activity at androgen receptor in human MDA-kb2 cells assessed as inhibition of DHT-induced luciferase activity at 10 uM after 24 hrs by chemiluminescence assay relative to control; assay type: cell-based
T1 sequence (whole entry): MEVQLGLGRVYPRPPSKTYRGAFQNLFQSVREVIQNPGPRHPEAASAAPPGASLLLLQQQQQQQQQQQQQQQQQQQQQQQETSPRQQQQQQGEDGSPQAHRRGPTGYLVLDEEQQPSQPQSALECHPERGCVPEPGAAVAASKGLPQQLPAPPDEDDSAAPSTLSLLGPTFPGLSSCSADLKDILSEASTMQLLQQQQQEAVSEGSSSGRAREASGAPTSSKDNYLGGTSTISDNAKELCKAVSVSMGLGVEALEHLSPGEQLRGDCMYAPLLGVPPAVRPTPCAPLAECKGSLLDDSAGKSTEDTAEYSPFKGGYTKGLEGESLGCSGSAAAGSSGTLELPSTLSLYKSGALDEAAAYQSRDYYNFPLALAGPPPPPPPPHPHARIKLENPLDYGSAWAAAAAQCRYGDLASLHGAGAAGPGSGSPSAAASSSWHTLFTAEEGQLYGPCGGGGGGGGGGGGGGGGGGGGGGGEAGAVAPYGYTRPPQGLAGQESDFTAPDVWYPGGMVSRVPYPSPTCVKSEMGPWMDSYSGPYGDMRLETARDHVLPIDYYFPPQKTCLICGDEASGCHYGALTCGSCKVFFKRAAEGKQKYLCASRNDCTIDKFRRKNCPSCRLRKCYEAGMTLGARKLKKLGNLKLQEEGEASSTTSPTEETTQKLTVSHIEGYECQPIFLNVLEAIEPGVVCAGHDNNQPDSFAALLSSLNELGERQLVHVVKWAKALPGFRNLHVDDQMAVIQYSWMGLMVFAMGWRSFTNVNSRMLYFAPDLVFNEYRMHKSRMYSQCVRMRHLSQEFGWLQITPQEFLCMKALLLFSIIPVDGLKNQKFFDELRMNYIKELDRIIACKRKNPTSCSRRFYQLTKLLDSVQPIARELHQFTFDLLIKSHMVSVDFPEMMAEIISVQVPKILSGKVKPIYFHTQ

[3] = biological target: T2, Androgen receptor (Homo sapiens, UniProt P10275); experiment: Displacement of [3H]-DHT from human GST-tagged androgen receptor LBD (627 to 919) expressed in Escherichia coli HB-101 after 15 hrs by liquid scintillation counting analysis
T2 sequence (P10275 whole entry): T1 sequence (whole entry)

[4] = biological target: Androgen receptor (Mus musculus) (UniProt P19091); experiment: Antagonist activity at androgen receptor in mouse SC3 cells assessed as inhibition of DHT-induced cell growth at 10 uM after 3 days by CCK-8/WST-8 assay relative to control; assay type: cell-based; settings: SC-3
Androgen receptor (Mus musculus), sequence (P19091 whole entry): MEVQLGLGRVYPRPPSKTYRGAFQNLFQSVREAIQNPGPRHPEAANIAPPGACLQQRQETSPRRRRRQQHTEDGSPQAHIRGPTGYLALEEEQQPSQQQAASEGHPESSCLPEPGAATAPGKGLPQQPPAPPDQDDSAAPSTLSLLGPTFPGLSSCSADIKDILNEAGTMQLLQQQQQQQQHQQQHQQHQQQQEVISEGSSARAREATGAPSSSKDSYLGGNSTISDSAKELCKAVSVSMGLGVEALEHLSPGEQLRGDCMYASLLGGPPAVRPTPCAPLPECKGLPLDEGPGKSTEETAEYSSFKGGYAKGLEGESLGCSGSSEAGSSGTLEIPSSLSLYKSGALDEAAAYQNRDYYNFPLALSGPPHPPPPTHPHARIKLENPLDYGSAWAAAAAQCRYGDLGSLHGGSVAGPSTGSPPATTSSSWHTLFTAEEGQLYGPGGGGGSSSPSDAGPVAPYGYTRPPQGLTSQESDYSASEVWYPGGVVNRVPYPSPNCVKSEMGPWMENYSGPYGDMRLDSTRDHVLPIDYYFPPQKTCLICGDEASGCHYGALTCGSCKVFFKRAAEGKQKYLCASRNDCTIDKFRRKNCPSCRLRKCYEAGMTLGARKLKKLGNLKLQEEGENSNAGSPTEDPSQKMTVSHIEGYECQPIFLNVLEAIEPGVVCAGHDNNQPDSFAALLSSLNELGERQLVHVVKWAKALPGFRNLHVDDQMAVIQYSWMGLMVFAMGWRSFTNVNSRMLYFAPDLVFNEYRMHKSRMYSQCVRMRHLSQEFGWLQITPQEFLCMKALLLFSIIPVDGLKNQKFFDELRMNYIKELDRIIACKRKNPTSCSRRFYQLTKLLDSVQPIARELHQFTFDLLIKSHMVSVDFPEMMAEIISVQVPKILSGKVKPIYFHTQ

Row | SMILES | IC50 [1] | inhibition [2] | IC50 [3] | growth inhibition (GI) [4]
1 | COc1cccc(C(=O)Nc2ccc(Oc3ccc(O)cc3)cc2)c1 | 5.6 µM | 6% | 20 µM | –
2 | O=C(Nc1ccc(Oc2ccccc2)cc1)c1ccccc1 | – | – | – | 20%
3 | CC(C)(O)C(=O)Nc1ccc([N+](=O)[O-])c(C(F)(F)F)c1 | – | 60% | – | –
4 | COc1cccc(C(=O)Nc2cnc(Oc3ccc(O)cc3)nc2)c1 | – | inactive | > 10 µM | –
5 | O=C(Nc1ccc(Oc2ccc(O)cc2)cc1)c1ccc(O)cc1 | – | – | – | inactive
6 | CC(O)(CS(=O)(=O)c1ccc(F)cc1)C(=O)Nc1ccc(C#N)c(C(F)(F)F)c1 (stereo not drawn) [BICALUTAMIDE] | > 10 µM | – | – | –
7 | COc1cccc(C(=O)Nc2cc(C)c(Oc3ccc(O)cc3)c(C)c2)c1 | > 10 µM | 69% | 5.4 µM | –
8 | COc1cccc(C(=O)Nc2ccc(Oc3ccc(O)cc3)c(C)c2)c1 | 5.7 µM | 66% | 9.2 µM | –
9 | O=C(Nc1ccc(Oc2ccc(O)cc2)cc1)c1cccc(O)c1 | – | – | – | inactive
10 | COc1cccc(C(=O)Nc2ccc(Oc3ccc(O)cc3)nc2)c1 | – | inactive | > 10 µM | –
